{
  "source": "patent US20230286919A1",
  "about": "“ISOQUINOLINE DERIVATIVES FOR USE IN THERAPY” (Vestlandets Innovasjonsselskap AS, priority 2020, published 2023)",
  "key": {"DU145 cells": {"test_system": "DU145 cells", "assay": "Flow cytometric analysis of cell apoptosis", "type": "cell-based, human", "conditions": "72 hrs", "procedure": "The […] effect of compounds 323-1 and 323-2 was evaluated in DU145 cells.\nData are shown as representative results of three experiments."}, "STAT3": {"test_system": "STAT3", "assay": "DARTS (drug affinity responsive target stability) assay in EPT3M1-STAT3 cell lysates", "type": "binding, human", "conditions": "200 μM", "procedure": "EPT3M1-STAT3 cells were lysed with cold M-PER buffer (Thermo Fisher Scientific, Pierce cat.78501) containing protease (Roche, Basel, Switzerland, cat. no. 11836153001) and phosphatase inhibitors (Pierce cat. no. 78420) and centrifugated (18,000×g for 10 min at 4° C.). Lysates were diluted to the same final volume and proteolysed in TNC buffer [50 mM Tris-HCl (pH 8.0), 50 mM NaCl, 10 mM CaCl2]. 200 μM 323-1 or 200 μM 323-2 or the same volume of DMSO were added and incubated for 1 hour at RT. Pronase solution (1.25 mg/ml, 1:100 stock solution) was diluted serially by mixing with 1×TNC buffer to create 1:300, 1:1000, 1:3000 and 1:10000 Pronase stock aliquots. Pronase was added into both DMSO and drug groups and incubated for 30 min at RT. Digestion was stopped by adding 4× loading buffer and heating to 90° C. for 10 min immediately prior to the Western blot assay according to Lomenick, et al. (Proc Natl Acad Sci USA, 2009; 106: 21984-9) and Lomenick wt al. (ACS Chem Biol. 2011; 6: 34-46). […]"}, "STAT3 activity": {"test_system": "STAT3 activity", "assay": "STAT3 luciferase reporter assay in HEK293T cells with IL-6", "type": "cell-based, human", "conditions": "20 ng/ml IL-6, 24 hrs, compared with cryptotanshinone", "procedure": "Luciferase activity was measured by the Dual Luciferase Assay Kit (Promega) using a Luminescence Microplate Reader (Biotek). Values were normalized to Renilla luciferase activity of DMSO vehicle.\nAll data are represented as the average±s.e.m (n=3). Significance was verified by using unpaired two-tailed Student's t-test. *p s 0.05."}, "LNCaP tumours": {"test_system": "LNCaP tumours", "assay": "Antitumor activity in vivo, LNCaP xenograft", "conditions": "IP daily for three weeks", "procedure": "Four-week-old male BALB/c-nu nude mice (15-20 g) were obtained from the Shanghai BiKai Laboratory Animal Co., Ltd. (Shanghai, China). The animals were maintained under specific pathogen-free conditions with food and water supplied ad libitum in the Laboratory Animal Center of the Second Military Medical University. All animal experiments were carried out in accordance with the Guide for the Care and Use of Laboratory Animals of the National Institutes of Health and were approved by the Committee on the Ethics of Animal Experiments of the Second Military Medical University, China. LNCaP cells were harvested and re-suspended in PBS. A total of 5×10^6 cells were subcutaneously injected into the right flank. Tumour volume was calculated using the following formula: V=(L×[…])/2, where L is the length and W is the width of the tumour nodules measured with vernier callipers. Once the volume of the tumours reached 75-100 mm^3, the mice were randomly divided into three groups (n=6). […] Body weights and tumour volumes were measured before each drug injection. […]\nThe mice were treated daily for three weeks with IP injections of either vehicle (olive oil) or compound 323-2 (20 mg/kg or 40 mg/kg in the vehicle). Body weights and tumour volumes were measured before each drug injection. […]"}, "[1]": {"test_system": "DU145, PC3, EPT3M1-STAT3, and 22Rv1 cells", "assay": "In vitro clonogenic assay", "type": "cell-based, human", "conditions": "DU145, PC3, EPT3M1-STAT3, 22Rv1; 2 weeks", "procedure": "On the second day after seeding single cells, 323-1 and 323-2 were added at various concentrations, and cells were allowed to grow for 2 weeks to form colonies, then stained with 0.4% crystal violet (w/v)."}, "[2]": {"test_system": "phosphorylated STAT3 (Tyr705) over pSTAT1 (S727)", "assay": "Western blot, pSTAT3 (Tyr705) and pSTAT1 (S727) in DU145 cells", "type": "cell-based, human", "conditions": "24 hrs"}, "[3]": {"test_system": "PC3, 22Rv1, LNCaP, EPT3-M1-STAT3-GFP cells", "assay": "MTS cell proliferation assay", "type": "cell-based, human", "conditions": "FIGS. 1-4", "procedure": "PC3, 22Rv1, LNCaP, EPT3-M1-STAT3 cells were seeded in 96-well plates for 24 hrs followed by treatment with different doses of 323-1 or 323-2. MTS assay was done after 3 days by adding 10 μl/well CellTiter 96@ AQueous One Solution Reagent (Promega, Madison, Wis., USA) for 4 hrs and the absorbance at 490 nm recorded using a Biotek machine.\nTo obtain the results shown in FIGS. 1-4, different cell lines were treated with indicated doses of compounds 323-1 and 323-2 for 72 hrs. All data are represented as the average±s.e.m (n=3). Significance was verified by using unpaired two-tailed Student's t-test. *p s 0.05 The total synthesis of compounds 323-1 and 323-2 was conducted as previously reported by Zhang et al. (Journal of the American Chemical Society. 2017; 139: 5558-67). The chemical structures of compounds 323-1 and 323-2 were validated by ^1H NMR, ^13C NMR."}},
  "data": [
    {"smiles": "C[C@@H]1CCC(c2cc3c4c(cncc4c2)[C@@H](C)C3)=C1C=O", "note": "[323-2, (15S,2R)-Delavatine A]", "values": [
      {"measurement": "Induction of apoptosis", "setting": "DU145 cells", "result": "appeared to induce apoptosis"},
      {"measurement": "Induction of apoptosis compared with cryptotanshinone", "setting": "DU145 cells", "result": "much weaker than by cryptotanshinone"},
      {"measurement": "Digestion of non-target proteins STAT1, JAK2, Src, β-actin", "setting": "STAT3", "result": "unchanged"},
      {"measurement": "Protection of STAT3 against pronase digestion", "setting": "STAT3", "result": "protection of the target protein STAT3"},
      {"measurement": "Inhibitory effect on STAT3 activation (luciferase reporter)", "setting": "STAT3 activity", "result": "stronger inhibitory effect on STAT3 activation than cryptotanshinone"},
      {"measurement": "CRPC tumour growth", "setting": "LNCaP tumours; 20 mg/kg or 40 mg/kg, especially high dose", "result": "significantly inhibited CRPC tumour growth"},
      {"measurement": "Body weight change", "setting": "LNCaP tumours; 20 or 40 mg/kg", "result": "No significant body weight change"},
      {"measurement": "Colony formation", "setting": "[1]", "result": "Concentration-dependent inhibition of colony formation"},
      {"measurement": "Expression of phosphorylated STAT3 at Tyr705 compared with S3I-201", "setting": "[2]", "result": "better effect than S3I-201"},
      {"measurement": "Selectivity, phosphorylated STAT3 (Tyr705) over pSTAT1 (S727)", "setting": "[2]", "result": "selective inhibitory effect"},
      {"measurement": "Inhibition of proliferation of tumor-initiating and other tumor cells", "setting": "[3]", "result": "efficiently inhibit the proliferation"}
    ]}
  ]
}
